Tests used:
[1] = target: T1, Alpha-2A adrenergic receptor (Homo sapiens, UniProt P08913); assay: Inhibition of alpha 2A adrenergic receptor (unknown origin)
T1 sequence (P08913 whole entry): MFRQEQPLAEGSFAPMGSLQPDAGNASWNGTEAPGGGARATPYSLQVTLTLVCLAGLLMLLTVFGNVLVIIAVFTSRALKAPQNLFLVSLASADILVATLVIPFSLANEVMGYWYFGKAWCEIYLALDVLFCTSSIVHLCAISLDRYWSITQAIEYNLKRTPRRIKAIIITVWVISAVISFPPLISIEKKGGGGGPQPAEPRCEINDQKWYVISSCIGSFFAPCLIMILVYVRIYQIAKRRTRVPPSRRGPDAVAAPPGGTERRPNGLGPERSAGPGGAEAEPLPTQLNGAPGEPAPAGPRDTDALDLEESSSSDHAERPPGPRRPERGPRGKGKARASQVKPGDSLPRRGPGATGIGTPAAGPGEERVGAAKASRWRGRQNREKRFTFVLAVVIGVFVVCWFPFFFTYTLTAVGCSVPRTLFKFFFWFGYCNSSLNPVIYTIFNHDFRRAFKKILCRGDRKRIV

Mu-type opioid receptor = Mu-type opioid receptor (Homo sapiens, UniProt P35372); assay: Inhibition of mu opioid receptor (unknown origin)
[2] = target: Kappa-type opioid receptor (Homo sapiens, UniProt P41145); assay: Inhibition of kappa opioid receptor (unknown origin)
D(2) dopamine receptor = D(2) dopamine receptor (Homo sapiens, UniProt P14416); assay: Inhibition of dopamine D2 receptor (unknown origin)
[3] = target: T2, Muscarinic acetylcholine receptor M2 (Homo sapiens, UniProt P08172); assay: Inhibition of M2 mAChR receptor (unknown origin)
T2 sequence (P08172 whole entry): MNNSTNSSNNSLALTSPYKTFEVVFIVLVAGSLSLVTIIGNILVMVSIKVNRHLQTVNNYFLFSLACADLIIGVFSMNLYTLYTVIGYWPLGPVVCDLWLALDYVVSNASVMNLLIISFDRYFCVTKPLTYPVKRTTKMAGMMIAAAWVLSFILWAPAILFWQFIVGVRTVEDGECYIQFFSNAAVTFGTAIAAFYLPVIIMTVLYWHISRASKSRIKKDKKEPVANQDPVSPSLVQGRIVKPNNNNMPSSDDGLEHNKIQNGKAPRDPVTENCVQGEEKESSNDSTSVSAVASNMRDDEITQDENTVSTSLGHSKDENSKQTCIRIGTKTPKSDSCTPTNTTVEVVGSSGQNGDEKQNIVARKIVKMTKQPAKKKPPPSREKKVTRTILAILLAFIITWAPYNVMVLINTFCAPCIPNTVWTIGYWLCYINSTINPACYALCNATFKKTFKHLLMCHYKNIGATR

[4] = target: Neuronal acetylcholine receptor subunit alpha-7 (Homo sapiens, UniProt P36544); assay: Inhibition of alpha7 nicotinic acetylcholine receptor (unknown origin)
[5] = Half life in mouse at 3 mg/kg, iv measured after 8 hrs by LC-MS/MS analysis; assay type: ADME, organism-based; settings: in vivo
[6] = Drug concentration in mouse plasma at 30 mg/kg, po measured at 12 hrs by LC-MS analysis; assay type: ADME, organism-based
[7] = AUC(0 to 8 h) in mouse plasma at 3 mg/kg, iv measured at 24 hrs by LC-MS/MS analysis; assay type: ADME, organism-based; design: route intravenous, time 24 hrs, dose 3 mg/kg; settings: in vivo
[8] = AUC(0 to 8 h)in mouse plasma at 3 mg/kg, po measured at 24 hrs by LC-MS/MS analysis; assay type: ADME, organism-based; design: route oral, dose 3 mg/kg, time 24 hrs; settings: in vivo
[9] = AUC(0 to 8 h) in mouse plasma at 30 mg/kg, po measured at 24 hrs by LC-MS/MS analysis; assay type: ADME, organism-based; design: route oral, time 24 hrs, dose 30 mg/kg; settings: in vivo
[10] = Oral bioavailability in mouse at 3 mg/kg measured at 24 hrs by LC-MS/MS analysis; assay type: ADME, organism-based; settings: in vivo
[11] = Oral bioavailability in mouse at 30 mg/kg measured at 24 hrs by LC-MS/MS analysis; assay type: ADME, organism-based; settings: in vivo
[12] = Volume of distribution in mouse at 3 mg/kg, measured at 24 hrs by LC-MS analysis; assay type: ADME, organism-based; settings: in vivo
[13] = Metabolic stability in human liver microsomes assessed compound remaining measured after 10 mins in presence of NADPH; assay type: ADME, Microsome; settings: read-out: Stability
[14] = Antagonist activity at human CXCR4 receptor expressed in CCRF-CEM cells assessed as inhibition of CXCL12-induced calcium release by calcium flux assay; assay type: cell-based
[15] = Metabolic stability in mouse liver microsomes assessed compound remaining measured after 10 mins in presence of NADPH; assay type: ADME, Microsome; settings: read-out: Stability
[16] = Antagonist activity at mAChR (unknown origin) expressed in CCRF-CEM cells assessed as inhibition of calcium release by calcium flux assay; assay type: cell-based; settings: Homo sapiens
[17] = Permeability of compound at pH 7.4 incubated for 4 hrs by PAMPA assay; assay type: ADME; settings: read-out: permeability
[18] = Permeability of compound at pH 5.5 incubated for 4 hrs by PAMPA assay; assay type: ADME; settings: read-out: permeability
Cytochrome P450 2D6 = Cytochrome P450 2D6 (Homo sapiens, UniProt P10635); assay: Inhibition of recombinant human CYP2D6 using AMMC as substrate preincubated for 30 mins followed by substrate addition measured after 45 mins by fluorescence based assay; assay type: ADME
[19] = Metabolic stability in rat liver microsomes assessed compound remaining measured after 10 mins in presence of NADPH; assay type: ADME, Microsome; settings: read-out: Stability
[20] = Cytotoxicity against human TZM-bl cells assessed as reduction in cell viability incubated for 4 hrs by […] assay; assay type: toxicity, cell-based; settings: read-out: TC50
[21] = test system: Human immunodeficiency virus 1; assay: Antiviral activity against HIV-1 Z1800M E4.02 (R5) pseudovirus infected in human TZM-blcells assessed as reduction in viral infectivity measured after 48 hrs of postinfection by luminescence assay; assay type: functional, organism-based; settings: Human immunodeficiency virus 1, Z1800M E4.02 (R5), TZM-bl
[22] = test system: Human immunodeficiency virus 1; assay: Antiviral activity against HIV-1 NL4-3(X4) pseudovirus infected in human TZM-bl cells assessed as reduction in viral infectivity measured after 48 hrs of postinfection by luminescence assay; assay type: functional, organism-based; settings: Human immunodeficiency virus 1, NL4-3(X4)
[23] = target: T3, Alpha-2C adrenergic receptor (Homo sapiens, UniProt P18825); assay: Inhibition of alpha 2C adrenergic receptor (unknown origin)
T3 sequence (P18825 whole entry): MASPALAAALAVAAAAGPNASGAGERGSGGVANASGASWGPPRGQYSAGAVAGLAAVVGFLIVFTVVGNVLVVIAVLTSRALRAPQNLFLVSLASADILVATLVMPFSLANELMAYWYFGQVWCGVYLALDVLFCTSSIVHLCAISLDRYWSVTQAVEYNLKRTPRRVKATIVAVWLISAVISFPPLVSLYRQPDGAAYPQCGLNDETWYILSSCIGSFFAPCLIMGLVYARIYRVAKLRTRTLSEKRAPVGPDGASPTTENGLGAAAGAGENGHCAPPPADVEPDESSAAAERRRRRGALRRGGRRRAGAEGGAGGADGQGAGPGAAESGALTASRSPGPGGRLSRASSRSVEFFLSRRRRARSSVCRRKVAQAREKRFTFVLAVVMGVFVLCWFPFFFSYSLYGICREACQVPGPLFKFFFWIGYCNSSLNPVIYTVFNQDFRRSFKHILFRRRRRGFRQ

[24] = target: Voltage-gated inwardly rectifying potassium channel KCNH2 (Homo sapiens, UniProt Q12809); assay: Inhibition of human ERG by [3H]]Astemizole binding assay; assay type: toxicity
Chain of Voltage-gated inwardly rectifying potassium channel KCNH2 (Q12809 whole entry): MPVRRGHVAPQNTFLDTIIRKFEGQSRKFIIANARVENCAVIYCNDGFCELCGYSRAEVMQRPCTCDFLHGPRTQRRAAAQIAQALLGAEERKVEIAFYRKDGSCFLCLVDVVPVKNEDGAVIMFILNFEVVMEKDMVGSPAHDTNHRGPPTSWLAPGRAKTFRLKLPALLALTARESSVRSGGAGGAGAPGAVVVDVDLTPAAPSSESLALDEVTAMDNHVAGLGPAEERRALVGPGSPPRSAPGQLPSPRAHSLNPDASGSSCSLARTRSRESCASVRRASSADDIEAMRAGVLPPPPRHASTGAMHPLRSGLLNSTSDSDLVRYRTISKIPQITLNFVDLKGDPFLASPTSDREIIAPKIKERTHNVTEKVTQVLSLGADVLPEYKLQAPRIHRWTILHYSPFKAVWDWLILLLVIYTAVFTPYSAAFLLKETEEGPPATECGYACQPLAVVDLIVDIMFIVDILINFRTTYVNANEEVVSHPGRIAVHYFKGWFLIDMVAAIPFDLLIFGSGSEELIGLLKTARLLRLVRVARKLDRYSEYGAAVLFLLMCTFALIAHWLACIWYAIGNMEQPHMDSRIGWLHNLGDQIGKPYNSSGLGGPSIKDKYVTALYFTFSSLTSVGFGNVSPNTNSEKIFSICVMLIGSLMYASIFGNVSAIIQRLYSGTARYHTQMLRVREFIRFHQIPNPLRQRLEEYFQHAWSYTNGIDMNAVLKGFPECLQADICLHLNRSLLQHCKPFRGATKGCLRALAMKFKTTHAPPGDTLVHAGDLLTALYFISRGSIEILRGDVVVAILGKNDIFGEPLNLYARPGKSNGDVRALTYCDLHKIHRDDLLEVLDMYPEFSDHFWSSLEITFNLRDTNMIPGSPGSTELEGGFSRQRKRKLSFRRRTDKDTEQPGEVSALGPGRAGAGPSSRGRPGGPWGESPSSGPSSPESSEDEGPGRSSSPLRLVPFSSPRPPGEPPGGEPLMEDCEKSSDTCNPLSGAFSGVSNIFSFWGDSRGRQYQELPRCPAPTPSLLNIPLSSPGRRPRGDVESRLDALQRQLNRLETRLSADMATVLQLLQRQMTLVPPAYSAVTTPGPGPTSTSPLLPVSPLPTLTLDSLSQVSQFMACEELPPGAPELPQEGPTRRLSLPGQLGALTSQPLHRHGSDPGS

Chain of Mu-type opioid receptor (P35372 whole entry): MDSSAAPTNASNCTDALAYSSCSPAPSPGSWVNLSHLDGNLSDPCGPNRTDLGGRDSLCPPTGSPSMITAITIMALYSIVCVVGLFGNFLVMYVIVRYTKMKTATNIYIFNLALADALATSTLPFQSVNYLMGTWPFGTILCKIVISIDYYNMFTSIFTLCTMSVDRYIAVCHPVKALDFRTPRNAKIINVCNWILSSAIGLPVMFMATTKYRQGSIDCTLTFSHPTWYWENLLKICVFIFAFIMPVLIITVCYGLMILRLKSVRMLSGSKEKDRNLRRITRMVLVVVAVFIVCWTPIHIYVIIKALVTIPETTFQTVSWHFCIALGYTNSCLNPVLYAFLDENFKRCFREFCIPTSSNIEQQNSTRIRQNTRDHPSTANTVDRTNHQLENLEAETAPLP
Chain of Cytochrome P450 2D6 (P10635 whole entry): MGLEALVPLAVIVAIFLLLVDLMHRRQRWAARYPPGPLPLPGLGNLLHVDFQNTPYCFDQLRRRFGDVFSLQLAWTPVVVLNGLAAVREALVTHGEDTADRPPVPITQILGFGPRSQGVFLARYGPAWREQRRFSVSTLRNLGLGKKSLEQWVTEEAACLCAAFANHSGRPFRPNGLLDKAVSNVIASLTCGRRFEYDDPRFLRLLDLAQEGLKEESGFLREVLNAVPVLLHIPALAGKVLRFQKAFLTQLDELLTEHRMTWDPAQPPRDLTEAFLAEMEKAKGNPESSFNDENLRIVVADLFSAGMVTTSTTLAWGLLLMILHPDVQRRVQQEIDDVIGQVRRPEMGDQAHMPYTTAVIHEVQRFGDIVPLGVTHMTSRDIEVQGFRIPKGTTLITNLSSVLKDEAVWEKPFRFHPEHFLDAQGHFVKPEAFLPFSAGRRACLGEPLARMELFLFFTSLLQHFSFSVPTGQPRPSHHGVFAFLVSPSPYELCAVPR
Chain of D(2) dopamine receptor (P14416 whole entry): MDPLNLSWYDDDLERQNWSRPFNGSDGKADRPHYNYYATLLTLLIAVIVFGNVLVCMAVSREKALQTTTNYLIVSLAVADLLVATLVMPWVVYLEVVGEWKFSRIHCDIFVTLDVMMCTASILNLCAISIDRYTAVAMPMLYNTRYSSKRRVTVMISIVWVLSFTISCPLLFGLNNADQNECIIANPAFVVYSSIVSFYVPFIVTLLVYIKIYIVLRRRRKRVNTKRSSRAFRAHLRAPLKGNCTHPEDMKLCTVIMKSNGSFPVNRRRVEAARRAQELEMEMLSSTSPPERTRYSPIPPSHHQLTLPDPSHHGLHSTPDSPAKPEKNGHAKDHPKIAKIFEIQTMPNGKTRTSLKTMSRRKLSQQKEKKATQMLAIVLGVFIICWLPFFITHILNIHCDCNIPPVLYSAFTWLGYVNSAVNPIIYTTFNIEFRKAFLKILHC
Chain of Neuronal acetylcholine receptor subunit alpha-7 (P36544 whole entry): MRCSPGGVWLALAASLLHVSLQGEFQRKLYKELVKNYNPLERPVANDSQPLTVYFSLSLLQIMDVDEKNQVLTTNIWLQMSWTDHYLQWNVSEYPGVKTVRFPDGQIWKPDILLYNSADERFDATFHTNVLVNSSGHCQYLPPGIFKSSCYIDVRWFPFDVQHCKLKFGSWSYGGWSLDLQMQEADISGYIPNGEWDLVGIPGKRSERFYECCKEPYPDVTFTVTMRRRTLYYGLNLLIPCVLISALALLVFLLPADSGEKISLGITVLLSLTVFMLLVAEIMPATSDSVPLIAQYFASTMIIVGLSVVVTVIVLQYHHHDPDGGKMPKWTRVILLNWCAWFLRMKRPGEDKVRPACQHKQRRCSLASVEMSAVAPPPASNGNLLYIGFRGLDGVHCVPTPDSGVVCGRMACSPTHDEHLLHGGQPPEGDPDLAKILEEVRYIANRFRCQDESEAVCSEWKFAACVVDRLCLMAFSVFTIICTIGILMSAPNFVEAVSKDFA
Chain of Kappa-type opioid receptor (P41145 whole entry): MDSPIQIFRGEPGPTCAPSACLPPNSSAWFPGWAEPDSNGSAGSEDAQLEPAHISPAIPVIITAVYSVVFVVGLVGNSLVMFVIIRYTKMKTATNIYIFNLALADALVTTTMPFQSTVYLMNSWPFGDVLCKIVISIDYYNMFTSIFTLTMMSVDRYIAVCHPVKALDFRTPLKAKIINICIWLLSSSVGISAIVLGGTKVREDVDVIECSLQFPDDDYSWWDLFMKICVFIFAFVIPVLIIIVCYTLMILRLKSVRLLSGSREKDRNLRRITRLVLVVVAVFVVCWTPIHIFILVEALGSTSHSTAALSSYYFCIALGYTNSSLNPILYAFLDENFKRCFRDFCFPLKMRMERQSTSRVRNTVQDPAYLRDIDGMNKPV

| IC50 [1] [µM] | IC50 (Mu-type opioid receptor) [µM] | IC50 [2] [µM] | IC50 (D(2) dopamine receptor) [µM] | IC50 [3] [µM] | IC50 [4] [µM] | remaining at 10 min [13] [%] | IC50 [14] [µM] | remaining at 10 min [15] [%] | IC50 [16] [µM] | Papp at 4 h [17] [×10⁻⁶ cm/s] | Papp at 4 h [18] [×10⁻⁶ cm/s] | IC50 (Cytochrome P450 2D6) [µM] | remaining at 10 min [19] [%] | IC50 [21] [µM] | IC50 [22] [µM] | IC50 [23] [µM] | Structure (SMILES) | CC50 at 4 h [20] [µM] | IC50 [24] [µM] | other results |
| --- | --- | --- | --- | --- | --- | --- | --- | --- | --- | --- | --- | --- | --- | --- | --- | --- | --- | --- | --- | --- |
| > 30 | 12 | > 30 | 4.1 | 7.5 | > 30 | – | – | – | – | – | – | – | – | – | – | – | NCCCCN(Cc1nc2ccccc2[nH]1)[C@H]1CCCc2cccnc21 [MAVORIXAFOR] | – | – | half-life [5]: 3.09 h; concentration at 12 h [6]: 2.2 ng/mL; AUC [7]: 415 h/ng/mL; AUC [8]: 35.1 h/ng/mL; AUC [9]: 101 h/ng/mL; bioavailability [10]: 2.54%; bioavailability [11]: 2.42%; Vd [12]: 32.2 L/kg |
| 28 | > 30 | 8.9 | > 30 | > 30 | > 30 | 100 | 0.11 | 51 | > 33 | 49 | 1.5 | > 20 | 64 | > 10 | 0.006 | 8.4 | CN(CCCCN(C[C@H]1Cc2ncccc2CN1)[C@H]1CCCc2cccnc21)C1CCOCC1 | > 10 | > 50 | – |
| 24 | 21 | 10.1 | > 30 | > 17 | > 30 | 97 | 0.16 | 41 | > 33 | 30 | 0.7 | > 20 | 27 | > 10 | 0.02 | 8.8 | c1cnc2c(c1)CN[C@@H](CN(CCCCNC1COC1)[C@H]1CCCc3cccnc31)C2 | > 10 | 11 | – |
| 0.62 | > 30 | > 30 | > 30 | > 30 | 11 | 100 | 0.27 | 20 | > 33 | 83 | 1.2 | > 20 | 39 | > 10 | > 0.03 | 20 | c1cnc2c(c1)CN[C@@H](CN(CCCCN1CCOCC1)[C@H]1CCCc3cccnc31)C2 | > 10 | 11 | – |
